Results taken from the supplement of paper PMC4862054.

What was measured:
[1] = tested on: CAL-51; conditions: 72 h
Method in brief: (§1)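 Viability of breast cancer cell lines was measured with CellTiter-Blue after 72 h of incubation on compound-loaded 384-well plates. Cells were seeded in 20 µl onto compound dissolved in 5 µl medium, and 2.5 µl reagent was added for 2 h at 37 °C before reading at 560/590 nm. EC50 was fitted from percent-inhibition dose-response data censored at the highest concentration, normalised per plate to vehicle and a positive kill control, with zero drug sensitivity score rows dropped.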

[2] = tested on: CAL-148; conditions: 72 h
Method in brief: as §1

[3] = tested on: CAL-85-1; test: normalised viability (% of control), CellTiter-Blue; higher = more viable cells (about 100 = DMSO control); conditions: incubation time: 72 h
Method in brief: (§2)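 After 72 h on compound-loaded 384-well plates, breast cancer cell lines received 2.5 µl CellTiter-Blue reagent for 2 h at 37 °C. Fluorescence at 560/590 nm was scaled per plate so that vehicle was 100 and a positive kill control was 0. The value stands for normalised viability at a single listed concentration of the series.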

[4] = tested on: MDA-MB-436; test: as above; conditions: incubation time: 72 h
Method in brief: as §2

[5] = tested on: HDQ-P1; test: as above; conditions: incubation time: 72 h
Method in brief: as §2

[6] = tested on: DU-4475; test: as above; conditions: incubation time: 72 h
Method in brief: as §2

[7] = tested on: MDA-MB-453; test: as above; conditions: incubation time: 72 h
Method in brief: as §2

[8] = tested on: Hs578T; test: as above; conditions: incubation time: 72 h
Method in brief: as §2

[9] = tested on: MFM-223; test: as above; conditions: incubation time: 72 h
Method in brief: as §2

[10] = tested on: BT-549; test: as above; conditions: incubation time: 72 h
Method in brief: as §2

[11] = tested on: CAL-51; test: as above; conditions: incubation time: 72 h
Method in brief: as §2

[12] = tested on: BT-474; test: as above; conditions: incubation time: 72 h
Method in brief: as §2

[13] = tested on: HCC1937; test: as above; conditions: incubation time: 72 h
Method in brief: as §2

[14] = tested on: MDA-MB-231; test: as above; conditions: incubation time: 72 h
Method in brief: as §2

[15] = tested on: HCC1143; test: as above; conditions: incubation time: 72 h
Method in brief: as §2

[16] = tested on: MDA-MB-468; test: as above; conditions: incubation time: 72 h
Method in brief: as §2

[17] = tested on: CAL-148; test: as above; conditions: incubation time: 72 h
Method in brief: as §2

CN1CCC(COc2cnc(-c3cccc(Cn4nc(-c5cccc(C#N)c5)ccc4=O)c3)nc2)CC1
Conditions | EC50, CellTiter-Blue viability [nM]
[1] | 4990
[2] | 5800

normalised viability [%]
Conditions | 3 nM | 10 nM | 30 nM | 100 nM | 1000 nM | 10000 nM
[3] | 110 | – | 96.5 | 121 | – | –
[4] | – | 82.3 | – | – | 92.3 | 11.6
[5] | 82 | – | 91.8 | 70.5 | – | –
[6] | 94.1 | – | 89.7 | 99.2 | – | –
[7] | 84.5 | – | 91.2 | 93.8 | – | –
[8] | – | 105 | – | – | 91 | 59.8
[9] | – | 108 | – | – | 119 | 22.5
[10] | – | 98.9 | – | – | 90 | 5.83
[11] | 97.3 | – | 98 | 87.6 | – | –
[12] | – | 93.6 | – | – | 105 | 9.72
[13] | – | 79.1 | – | – | 96.1 | 10.6
[14] | – | 79 | – | – | 81.3 | 1.93
[15] | – | 116 | – | – | 103 | 114
[16] | – | 92.8 | – | – | 92.9 | 5.99
[17] | 85.8 | – | 83.2 | 94.2 | – | –

CN(C)C/C=C/C(=O)Nc1cc2c(Nc3ccc(F)c(Cl)c3)ncnc2cc1O[C@H]1CCOC1 [Afatinib]
Conditions | EC50, CellTiter-Blue viability [nM]
[1] | 4750
[2] | 65

normalised viability [%]
Conditions | 3 nM | 10 nM | 30 nM | 100 nM | 1000 nM | 10000 nM
[3] | 83.2 | – | 57.4 | 54.2 | – | –
[4] | – | 90.8 | – | – | 103 | 17.3
[5] | 92.5 | – | 76.9 | 77.1 | – | –
[6] | 95.1 | – | 83.2 | 85.8 | – | –
[7] | 104 | – | 67 | 46.6 | – | –
[8] | – | 98 | – | – | 95.7 | 14.4
[9] | – | 88.7 | – | – | 83.4 | 25.1
[10] | – | 87.1 | – | – | 92.9 | 11.7
[11] | 114 | – | 99.8 | 97.7 | – | –
[12] | – | 72.1 | – | – | 33.8 | 16
[13] | – | 83.2 | – | – | 67.5 | 13.9
[14] | – | 89.1 | – | – | 74.2 | 7.48
[15] | – | 66 | – | – | 70 | 42.9
[16] | – | 99.1 | – | – | 56.9 | 11.5
[17] | 83.2 | – | 72.9 | 72.5 | – | –

CN1CC[C@H](c2c(O)cc(O)c3c(=O)cc(-c4ccccc4Cl)oc23)[C@H](O)C1 [Alvocidib]
Conditions | EC50, CellTiter-Blue viability [nM]
[1] | 185
[2] | 125

normalised viability [%]
Conditions | 3 nM | 10 nM | 30 nM | 100 nM | 1000 nM | 10000 nM
[3] | 82.7 | – | 79.9 | 76.6 | – | –
[4] | – | 91 | – | – | 14.9 | 15.8
[5] | 88.6 | – | 87.6 | 84.2 | – | –
[6] | 90.7 | – | 79.2 | 78.6 | – | –
[7] | 104 | – | 91.4 | 73 | – | –
[8] | – | 90.8 | – | – | 4.18 | 2.76
[9] | – | 87.3 | – | – | 8.79 | 8.79
[10] | – | 92 | – | – | 9 | 7.78
[11] | 109 | – | 92.5 | 78.1 | – | –
[12] | – | 102 | – | – | 23 | 26.6
[13] | – | 79.5 | – | – | 15 | 18.7
[14] | – | 88.2 | – | – | 7.07 | 6.37
[15] | – | 76.5 | – | – | 14.1 | 15.1
[16] | – | 108 | – | – | 10.4 | 5.45
[17] | 86 | – | 89.6 | 70.8 | – | –
